In US9782434B2, “Methods of treating or preventing inflammation and hypersensitivity with oxidative reductive potential water solution” (Oculus Innovative Sciences, Inc., priority 2006, dated 2017):
Read-outs that look alike come from different tables or passages of the source. Each block holds one compound with its values, some of them ahead of it. Bridge positions count the residues as written; N and C are the ends. Square brackets hold non-standard residues; d marks the D form. Peptide text beside a SMILES is read from it. * marks the point of attachment. Ileψ(thiazoline)Cys = CC[C@H](C)[C@H](N)C1=N[C@H](C(=O)*)CS1; dOrn = NCCC[C@@H](N)C(=O)O

Assays:
[1] = system: human diploid fibroblasts (HDFs); experiment: Cell viability, apoptosis and necrosis by flow cytometry; assay type: cell-based; details: 880 mM
Experimental: HP is known to be toxic to eukaryotic cells, increasing apoptosis and necrosis and reducing cellular viability. […] HDF cultures were obtained from three different foreskins, which were pooled and cryopreserved together for the purpose of this study. Only diploid cells were used for all experiments. […] Simultaneous analyses of these parameters were performed in the same cell populations by flow cytometry using: […] B) Annexin V-FITC; and C) Propidium iodide. FIG. 4A-4C disclose percentage values expressed as mean±SD (n=3).

[2] = system: human diploid fibroblasts (HDFs); details: 30 min, 500 μM
[3] = system: human cell cultures
[4] = system: murine polychromatic erythrocytes
[5] = system: B. atropheus spores, Pseudomonas aeruginosa, and Staphylococcus aureus; experiment: Bacterial suspension assay, test organisms overall; assay type: cell-based; details: 33 Units/ml; over the time periods tested
Experimental: Dermacyn is a ready to use product, therefore performing dilutions during testing was not required.
A purchased spore suspension of B. atropheus at 2.5×10^7/ml was used for testing. In addition fresh suspensions of Pseudomonas aeruginosa, and Staphylococcus aureus were prepared and measured using a spectrophotometer to ensure the titer was acceptable
Nine microliters of test substance was added to 100 ul of microbe suspension. The test mixture was held at 20° C. for the contact times of 20 seconds, 5 minutes, and 20 minutes. […] (entire mixture) was added to 9.0 ml of neutralizer for 20 minutes (this is the original neutralization tube or ONT) 1.0 ml of the neutralized test mixture was plated on Tryptic Soy Agar in duplicate for the 5 minute and 20 minute contact times. Additional dilutions and spread plates were used for the 20 second time point, to achieve countable plates.
All plates were incubated at 30° C.-35° C. for a total of 3 days and were evaluated after each day of incubation.

increase in number of 8-OHdG adducts relative to control-treated or ORP water solution-treated cells [2]: about 25 fold | GAPDH RT-PCR product [3]: little if any GAPDH RT-PCR product | RNA degradation, denaturing gel electrophoresis [3]: significant RNA degradation
Structure (SMILES): OO [HP, hydrogen peroxide]
Cell viability (7AAD) ([1]; 5 min): 55% | necrosis, cells incorporating propidium iodide ([1]; 5 min): 20% | Cell viability (7AAD) ([1]; 30 min): 5% | necrosis, cells incorporating propidium iodide ([1]; 30 min): 75%

Structure (SMILES): O=P1(N(CCCl)CCCl)NCCCO1 (centres unmarked) [cyclophosphamide]
PCE/NCE ratio ([4]; females, negative controls 1.02): 0.73 | number of polychromatic erythrocytes bearing micronuclei ([4]; males, negative controls 0.6): 11.0 | PCE/NCE ratio ([4]; males, negative controls 0.90): 0.77

Structure (SMILES): CC[C@H](C)[C@H](N)C1=N[C@H](C(=O)N[C@@H](CC(C)C)C(=O)N[C@H](CCC(=O)O)C(=O)N[C@H](C(=O)N[C@H]2CCCCNC(=O)[C@H](CC(N)=O)NC(=O)[C@@H](CC(=O)O)NC(=O)[C@H](Cc3cnc[nH]3)NC(=O)[C@@H](Cc3ccccc3)NC(=O)[C@H]([C@@H](C)CC)NC(=O)[C@@H](CCCN)NC2=O)[C@@H](C)CC)CS1 [Bacitracin] ({Ileψ(thiazoline)Cys}-L[dE]IK[dOrn]I[dF]H[dD]N; lactam 4-C)
lowering of bacterial or spore populations [5]: no evidence of lowering the bacterial or spore populations
